Experimental data published in patent EP0322748B1, “Antibiotic NK86-0279, process for production of the same and application of the same” (NIPPON KAYAKU KABUSHIKI KAISHA, priority 1987, dated 1989).
Converted amounts (≈) assume the structure as drawn.

System: human melanoma cells (A375)
Test: growth-inhibitory effect on human melanoma cells, dye exclusion method
Type: cell-based
Experimental: The growth-inhibitory effects of the compound of the present invention on mouse melanoma cells (B16) and human melanoma cells (A375) were examined. A 96-well plate was inoculated with mouse melanoma cells at a ratio of 1.5 x 10³ cells per well, while another 96-well plate was inoculated with human melanoma cells at a ratio of 1.0 x 10³ per well. These cells were incubated in an incubator at 37°C under 5 % CO₂. Then the compound of the present invention was added thereto at various concentrations. Cells in each well were counted by the dye exclusion method 65 hours after the addition to thereby evaluate the growth-inhibitory effect of the test compound on the mouse melanoma cells and that on the human melanoma cells.

For `CCC1C=CC=CCC(C)C(O)C(C)(O)C(=O)C(C)C(O)C(C)C(=O)C(C)C(O)C(C)C=CC(=O)OC2C(C)C(CC1)OC1(OC(CC(C)O)C(C)CC1=O)C2CC` (stereo not drawn) [NK86-0279], the IC50 (A-375, human melanoma cells (A375), 65 hours after the addition, read-out: IC₅₀) was 1.87 µg/mL (≈ 2.28 µM), the inhibition at 0.0061 µg/mL (Homo sapiens, A-375, 65 h, A375, 0.0061 µg/ml, read-out: Growth-inhibitory ratio) was 19.7% and the inhibition at 0.024 µg/mL (Homo sapiens, A-375, 65 h, A375, 0.024 µg/ml, read-out: Growth-inhibitory ratio) was 39.7%. For the same compound, the inhibition at 0.098 µg/mL (Homo sapiens, A-375, 65 h, A375, 0.098 µg/ml, read-out: Growth-inhibitory ratio) was 49.4%, the inhibition at 0.39 µg/mL (Homo sapiens, A-375, 65 h, A375, 0.39 µg/ml, read-out: Growth-inhibitory ratio) was 43.7% and the inhibition at 1.56 µg/mL (Homo sapiens, A-375, 65 h, A375, 1.56 µg/ml, read-out: Growth-inhibitory ratio) was 44.4%. The inhibition at 6.25 µg/mL (Homo sapiens, A-375, 65 h, A375, 6.25 µg/ml, read-out: Growth-inhibitory ratio) was 83.6%, the inhibition at 25 µg/mL (Homo sapiens, A-375, 65 h, A375, 25 µg/ml, read-out: Growth-inhibitory ratio) was 105% and the inhibition at 100 µg/mL (Homo sapiens, A-375, 65 h, A375, 100 µg/ml, read-out: Growth-inhibitory ratio) was 105%.
